Assay results as given in article PMC6017736, “Indole-3-Carbonitriles as DYRK1A Inhibitors by Fragment-Based Drug Design” (Molecules : A Journal of Synthetic Chemistry and Natural …, 2018).

Columns and labels:
CLK3 = CLK3 (Mus musculus, UniProt O35492); test: Protein kinase assay ([γ-33P]-ATP, RS peptide substrate), CLK3; assay type: biochemical; conditions: for inhibition at 10 µM / remaining activity at 10 µM: 10 µM compound; for inhibition at 10 µM: read-out: Inhibition at 10 µM CLK3 (class symbol); for remaining activity at 10 µM: compared to controls, read-out: Residual Activity at 10 µM CLK3; for IC50: 15 µM ATP
CLK3, sequence (O35492 whole entry, the tested form may be a part): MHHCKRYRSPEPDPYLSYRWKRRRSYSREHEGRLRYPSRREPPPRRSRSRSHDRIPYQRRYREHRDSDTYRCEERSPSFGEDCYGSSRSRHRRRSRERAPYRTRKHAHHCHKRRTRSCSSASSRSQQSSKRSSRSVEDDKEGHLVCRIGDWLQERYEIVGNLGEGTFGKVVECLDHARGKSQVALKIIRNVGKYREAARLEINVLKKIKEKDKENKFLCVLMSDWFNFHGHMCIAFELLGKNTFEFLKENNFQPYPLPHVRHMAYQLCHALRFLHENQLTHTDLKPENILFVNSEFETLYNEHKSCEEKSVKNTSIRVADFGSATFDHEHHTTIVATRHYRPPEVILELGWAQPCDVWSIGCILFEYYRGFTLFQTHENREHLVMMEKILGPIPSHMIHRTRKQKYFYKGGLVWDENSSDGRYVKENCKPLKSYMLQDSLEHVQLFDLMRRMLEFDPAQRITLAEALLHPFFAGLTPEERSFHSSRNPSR
Experimental: (§1) DYRK1A, 1B, 2, 3 (human, recombinant, expressed in E. coli as GST fusion proteins) and CLK1, 2, 3, and 4 (mouse, recombinant, expressed in E. coli as GST fusion proteins) were assayed as described for GSK-3 in Buffer A (supplemented extemporaneously with 0.15 mg BSA/mL + 1 mM DTT) with 1 µg of RS peptide ([…]) as a substrate.

DYRK2 = biological target: T1, DYRK2 (Homo sapiens, UniProt Q92630); test: Protein kinase assay ([γ-33P]-ATP, RS peptide substrate), DYRK2; assay type: biochemical; conditions: for inhibition at 10 µM / remaining activity at 10 µM: 10 µM compound; for inhibition at 10 µM: read-out: Inhibition at 10 µM DYRK2 (class symbol); for remaining activity at 10 µM: compared to controls, read-out: Residual Activity at 10 µM DYRK2; for IC50: 15 µM ATP
T1 sequence (Q92630 1-601): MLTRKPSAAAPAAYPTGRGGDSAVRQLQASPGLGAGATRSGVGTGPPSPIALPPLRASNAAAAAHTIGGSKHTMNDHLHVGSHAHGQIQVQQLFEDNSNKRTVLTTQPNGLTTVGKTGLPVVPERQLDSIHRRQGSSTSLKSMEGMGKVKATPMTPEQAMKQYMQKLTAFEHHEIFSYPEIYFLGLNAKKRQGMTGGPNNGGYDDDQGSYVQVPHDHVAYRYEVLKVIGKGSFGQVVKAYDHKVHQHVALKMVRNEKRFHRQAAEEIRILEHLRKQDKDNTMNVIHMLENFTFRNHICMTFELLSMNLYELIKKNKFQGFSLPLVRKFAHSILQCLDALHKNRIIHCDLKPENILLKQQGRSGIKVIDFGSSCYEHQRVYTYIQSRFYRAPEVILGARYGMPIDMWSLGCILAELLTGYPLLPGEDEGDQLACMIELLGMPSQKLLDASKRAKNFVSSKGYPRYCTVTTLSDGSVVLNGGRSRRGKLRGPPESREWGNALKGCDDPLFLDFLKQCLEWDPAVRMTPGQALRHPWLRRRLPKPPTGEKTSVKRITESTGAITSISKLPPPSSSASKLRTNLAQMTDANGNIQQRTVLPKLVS
Experimental: as §1

DYRK3 = biological target: T2, DYRK3 (Homo sapiens, UniProt O43781); test: Protein kinase assay ([γ-33P]-ATP, RS peptide substrate), DYRK3; assay type: biochemical; conditions: for inhibition at 10 µM / remaining activity at 10 µM: 10 µM compound; for inhibition at 10 µM: read-out: Inhibition at 10 µM DYRK3 (class symbol); for remaining activity at 10 µM: compared to controls, read-out: Residual Activity at 10 µM DYRK3; for IC50: 15 µM ATP
T2 sequence (O43781 1-588): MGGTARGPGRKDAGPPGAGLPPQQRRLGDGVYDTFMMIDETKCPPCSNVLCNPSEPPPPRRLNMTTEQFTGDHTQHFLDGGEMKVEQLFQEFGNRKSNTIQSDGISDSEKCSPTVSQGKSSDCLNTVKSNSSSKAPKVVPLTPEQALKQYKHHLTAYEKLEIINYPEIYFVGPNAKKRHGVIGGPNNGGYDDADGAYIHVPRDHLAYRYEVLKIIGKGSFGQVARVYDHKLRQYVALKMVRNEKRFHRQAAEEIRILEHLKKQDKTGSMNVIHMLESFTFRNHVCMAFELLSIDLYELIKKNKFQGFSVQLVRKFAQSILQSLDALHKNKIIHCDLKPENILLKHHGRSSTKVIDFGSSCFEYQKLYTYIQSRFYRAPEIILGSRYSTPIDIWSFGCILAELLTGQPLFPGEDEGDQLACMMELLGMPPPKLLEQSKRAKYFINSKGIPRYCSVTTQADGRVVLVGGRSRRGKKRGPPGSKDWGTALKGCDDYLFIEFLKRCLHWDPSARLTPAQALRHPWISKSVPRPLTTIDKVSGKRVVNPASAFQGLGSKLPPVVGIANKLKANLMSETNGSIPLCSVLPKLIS
Experimental: as §1

CLK1 = CLK1 (Mus musculus, UniProt P22518); test: Protein kinase assay ([γ-33P]-ATP, RS peptide substrate), CLK1; assay type: biochemical; conditions: for IC50: 15 µM ATP; for remaining activity at 10 µM: 10 µM compound, compared to controls, read-out: Residual Activity at 10 µM CLK1
CLK1, sequence (P22518 whole entry): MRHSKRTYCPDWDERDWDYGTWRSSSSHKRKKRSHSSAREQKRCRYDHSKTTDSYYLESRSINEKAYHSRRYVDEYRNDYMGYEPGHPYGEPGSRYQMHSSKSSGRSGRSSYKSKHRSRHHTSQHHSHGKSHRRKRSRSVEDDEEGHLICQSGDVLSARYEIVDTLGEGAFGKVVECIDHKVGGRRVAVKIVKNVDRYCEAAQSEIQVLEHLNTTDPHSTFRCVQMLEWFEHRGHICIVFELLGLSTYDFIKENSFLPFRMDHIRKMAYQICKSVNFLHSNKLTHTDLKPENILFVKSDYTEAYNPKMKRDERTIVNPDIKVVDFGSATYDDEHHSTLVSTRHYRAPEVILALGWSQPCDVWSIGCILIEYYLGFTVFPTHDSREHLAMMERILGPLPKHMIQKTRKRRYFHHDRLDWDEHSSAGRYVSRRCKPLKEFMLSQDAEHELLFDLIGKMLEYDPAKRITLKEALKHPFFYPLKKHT
Experimental: as §1

GSK-3 = test: Protein kinase assay ([γ-33P]-ATP, GS-1 substrate), GSK-3; conditions: for Inhibition at 10 µM GSK3 (class symbol) / Residual Activity at 10 µM GSK3: 10 µM compound; for Residual Activity at 10 µM GSK3: compared to controls; for IC50: read-out: IC50 GSK3, 15 µM ATP
Experimental: First, the kinases were incubated with 10 µM solutions of the compounds and the residual activities compared to controls were measured.
Controls were performed with appropriate dilutions of DMSO. The GS-1 and RS peptide substrates were obtained from Proteogenix (Oberhausbergen, France).
After 30 min incubation at 30 °C, the reaction was stopped by harvesting onto P81 phosphocellulose supernatant (Whatman) using a FilterMate harvester (Packard) and washing in 1% phosphoric acid. Scintillation fluid was added and the radioactivity measured in a Packard counter [52].
All data points for construction of dose response curves were recorded in triplicate.

CLK4 = CLK4 (Mus musculus, UniProt O35493); test: Protein kinase assay ([γ-33P]-ATP, RS peptide substrate), CLK4; assay type: biochemical; conditions: for IC50: 15 µM ATP; for remaining activity at 10 µM: 10 µM compound, compared to controls, read-out: Residual Activity at 10 µM CLK4
CLK4, sequence (O35493 whole entry): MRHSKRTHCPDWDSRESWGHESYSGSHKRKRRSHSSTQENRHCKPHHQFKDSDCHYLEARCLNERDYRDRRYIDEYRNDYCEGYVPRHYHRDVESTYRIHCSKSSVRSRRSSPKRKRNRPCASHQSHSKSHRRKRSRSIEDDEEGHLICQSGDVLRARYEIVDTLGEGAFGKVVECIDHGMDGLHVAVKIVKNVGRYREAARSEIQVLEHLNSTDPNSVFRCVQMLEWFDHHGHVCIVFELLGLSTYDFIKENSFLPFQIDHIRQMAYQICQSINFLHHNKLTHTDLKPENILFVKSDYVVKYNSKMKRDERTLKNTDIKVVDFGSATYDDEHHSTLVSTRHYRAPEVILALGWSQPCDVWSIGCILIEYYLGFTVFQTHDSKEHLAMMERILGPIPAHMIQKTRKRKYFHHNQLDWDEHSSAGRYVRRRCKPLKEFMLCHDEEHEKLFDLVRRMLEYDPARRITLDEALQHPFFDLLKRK
Experimental: as §1

DYRK1A [1] = biological target: T3, DYRK1A (Homo sapiens, UniProt Q13627); test: Ligand-lipophilicity efficiency (pIC50 minus calculated logP); conditions: Table S2
Experimental: All new compounds were evaluated based on their physicochemical properties regarding Lipinski’s rule of five and the ligand-lipophilicity efficiency (LLE). Both concepts are used to assess the druglikeness of drug development candidates. […] LLE is calculated from pIC50 minus calculated logP [46].

DYRK1B = DYRK1B (Homo sapiens, UniProt Q9Y463); test: Protein kinase assay ([γ-33P]-ATP, RS peptide substrate), DYRK1B; assay type: biochemical; conditions: for IC50: 15 µM ATP, read-out: IC50 DYRK 1B; for remaining activity at 10 µM: 10 µM compound, compared to controls, read-out: Residual Activity at 10 µM DYRK 1B
DYRK1B, sequence (Q9Y463 whole entry): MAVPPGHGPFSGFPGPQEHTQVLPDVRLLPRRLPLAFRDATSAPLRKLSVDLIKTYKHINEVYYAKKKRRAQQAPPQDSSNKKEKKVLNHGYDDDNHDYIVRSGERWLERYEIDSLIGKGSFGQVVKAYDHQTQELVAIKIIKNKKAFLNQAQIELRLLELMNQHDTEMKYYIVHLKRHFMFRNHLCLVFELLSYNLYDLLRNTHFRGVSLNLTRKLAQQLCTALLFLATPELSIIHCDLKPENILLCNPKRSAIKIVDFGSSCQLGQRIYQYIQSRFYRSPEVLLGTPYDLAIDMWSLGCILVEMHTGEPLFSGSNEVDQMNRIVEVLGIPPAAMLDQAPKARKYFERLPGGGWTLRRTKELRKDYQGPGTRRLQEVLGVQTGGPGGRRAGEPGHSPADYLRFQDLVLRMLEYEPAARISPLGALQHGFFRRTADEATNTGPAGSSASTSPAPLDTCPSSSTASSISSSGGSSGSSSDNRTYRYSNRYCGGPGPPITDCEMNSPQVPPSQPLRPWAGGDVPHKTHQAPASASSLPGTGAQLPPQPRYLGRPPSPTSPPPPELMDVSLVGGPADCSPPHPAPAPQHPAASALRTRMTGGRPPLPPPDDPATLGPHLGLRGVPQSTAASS
Experimental: as §1

CLK2 = CLK2 (Mus musculus, UniProt O35491); test: Protein kinase assay ([γ-33P]-ATP, RS peptide substrate), CLK2; assay type: biochemical; conditions: for IC50: 15 µM ATP; for remaining activity at 10 µM: compared to controls, read-out: Residual Activity at 10 µM CLK2
CLK2, sequence (O35491 whole entry): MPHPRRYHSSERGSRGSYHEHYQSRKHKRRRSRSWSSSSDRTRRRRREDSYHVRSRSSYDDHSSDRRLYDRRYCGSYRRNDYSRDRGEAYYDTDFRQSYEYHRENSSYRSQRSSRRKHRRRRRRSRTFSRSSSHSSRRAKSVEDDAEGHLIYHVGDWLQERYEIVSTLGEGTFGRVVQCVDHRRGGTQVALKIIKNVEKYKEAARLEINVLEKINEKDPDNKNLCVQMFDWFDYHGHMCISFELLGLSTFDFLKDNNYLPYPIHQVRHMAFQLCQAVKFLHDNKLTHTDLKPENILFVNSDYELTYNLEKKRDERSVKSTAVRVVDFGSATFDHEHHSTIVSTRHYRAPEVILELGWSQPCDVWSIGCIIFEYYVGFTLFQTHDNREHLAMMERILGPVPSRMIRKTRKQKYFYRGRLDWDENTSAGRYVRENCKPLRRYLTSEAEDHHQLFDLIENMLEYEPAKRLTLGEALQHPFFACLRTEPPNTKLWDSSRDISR
Experimental: as §1

DYRK1A [2] = biological target: T3, DYRK1A; test: Protein kinase assay ([γ-33P]-ATP, RS peptide substrate), DYRK1A; assay type: biochemical; conditions: for IC50: 15 µM ATP, read-out: IC50 DYRK 1A; for remaining activity at 10 µM: 10 µM compound, compared to controls, read-out: Residual Activity at 10 µM DYRK 1A
[3] = Cytotoxicity, cell viability by tetrazolium dye assay (XTT assay); assay type: cell-based; conditions: human, HeLa cells, 1 µM, read-out: Viability of treated HeLa cells relative to control cells
Experimental: To evaluate the applicability of the 2-substituted indole-3-carbonitrile compounds in cell culture experiments, we assessed toxicity of 6f, 6h, 6s and 13b on HeLa cells by viability assays (Table 4).
The inhibitors were added to the cultured cells from stock solutions in DMSO to the desired final concentration. For cytotoxicity assays, HeLa cells were grown in 96-well plates (20,000–30,000 cells per well) and incubated with the test compounds for 3 days before cell viability was evaluated with the help of a tetrazolium dye assay (XTT assay, AppliChem GmbH, Darmstadt, Germany).

Structure (SMILES)	IC50 (CLK1) [nM]	IC50 (CLK4) [nM]	LLE (DYRK1A [1])	IC50 (DYRK1B) [nM]	IC50 (CLK2) [nM]	IC50 (DYRK1A [2]) [nM]	remaining activity at 10 µM (CLK1) [%]	remaining activity at 10 µM (DYRK1A [2]) [%]	IC50 (CLK3) [nM]	IC50 (DYRK2) [nM]	IC50 (DYRK3) [nM]	other results
N#Cc1c(-c2ccccc2)[nH]c2ccccc12 [Compound 6d, 2-Phenyl-1H-indole-3-carbonitrile]	800	2000	2.90	6000	> 10000	400						inhibition at 10 µM (CLK3): < 20%; inhibition at 10 µM (DYRK2): < 20%; inhibition at 10 µM (DYRK3): < 20%; Inhibition at 10 µM GSK3 (class symbol) (GSK-3): - (-: less than 20% inhibition at 10 µM, IC50 was not determined)
Cc1cccc2c(C#N)c(-c3ccccc3)[nH]c12 [Compound 6e, 7-Methyl-2-phenyl-1H-indole-3-carbonitrile]							56	35				remaining activity at 10 µM (CLK3): 124%; remaining activity at 10 µM (DYRK2): 75%; remaining activity at 10 µM (DYRK3): 105%; remaining activity at 10 µM (CLK4): 43%; remaining activity at 10 µM (DYRK1B): 74%; remaining activity at 10 µM (CLK2; 10 µM compound): 75%
N#Cc1c(-c2ccc(Cl)cc2)[nH]c2c(Cl)cccc12 [Compound 6i, 7-Chloro-2-(4-chlorophenyl)-1H-indole-3-carbonitrile]							68	60				Residual Activity at 10 µM GSK3 (GSK-3): 112%
COc1ccc(-c2[nH]c3c(Cl)cccc3c2C#N)cc1 [Compound 6j, 7-Chloro-2-(4-methoxyphenyl)-1H-indole-3-carbonitrile]							47	60				Residual Activity at 10 µM GSK3 (GSK-3): 118%
C=CCc1[nH]c2c(Cl)cccc2c1C#N [Compound 6k, 2-Allyl-7-chloro-1H-indole-3-carbonitrile]	533	533	2.77	1300	1300	690			> 10000	> 10000	> 10000	
N#Cc1c(CCC2OCCCO2)[nH]c2c(Cl)cccc12 [Compound 6l, 2-(2-(1,3-Dioxan-2-yl)ethyl)-7-chloro-1H-indole-3-carbonitrile]	4900	4000	2.57	> 10000	> 10000	3900			> 10000	> 10000	> 10000	
N#Cc1c(-c2ccc(Cl)cc2)[nH]c2c(I)cccc12 [Compound 6m, 7-Iodo-2-(4-chlorophenyl)-1H-indole-3-carbonitrile]							55	42				remaining activity at 10 µM (CLK3): 130%; remaining activity at 10 µM (DYRK2): 116%; remaining activity at 10 µM (DYRK3): 101%; remaining activity at 10 µM (CLK4): 36%; remaining activity at 10 µM (DYRK1B): 79%; remaining activity at 10 µM (CLK2; 10 µM compound): 92%
COc1ccc(-c2[nH]c3c(I)cccc3c2C#N)cc1 [Compound 6n, 7-Iodo-2-(4-methoxyphenyl)-1H-indole-3-carbonitrile]	333	220	2.36	> 10000	> 10000	233			> 10000	> 10000	> 10000	
COc1cccc(-c2[nH]c3c(I)cccc3c2C#N)c1 [Compound 6o, 7-Iodo-2-(3-methoxyphenyl)-1H-indole-3-carbonitrile]	633	290	2.41	633	3300	210			> 10000	> 10000	> 10000	
CC(C)c1[nH]c2c(I)cccc2c1C#N [Compound 6q, 7-Iodo-2-isopropyl-1H-indole-3-carbonitrile]	100	100	2.61	530	700	280			> 10000	> 10000	> 10000	IC50 (GSK-3): 1300 nM
N#Cc1cn(Cc2ccccc2)c2c(Cl)cccc12 [Compound 13a, 1-Benzyl-7-chloro-1H-indole-3-carbonitrile]							102	97				remaining activity at 10 µM (CLK3): 127%; remaining activity at 10 µM (DYRK2): 144%; remaining activity at 10 µM (DYRK3): 95%; remaining activity at 10 µM (CLK4): 84%; remaining activity at 10 µM (DYRK1B): 78%; remaining activity at 10 µM (CLK2; 10 µM compound): 95%
Cn1cc(C#N)c2cccc(Cl)c21 [Compound 13c, 7-Chloro-1-methyl-1H-indole-3-carbonitrile]							56	32				remaining activity at 10 µM (CLK3): 97%; remaining activity at 10 µM (DYRK2): 117%; remaining activity at 10 µM (DYRK3): 95%; remaining activity at 10 µM (CLK4): 30%; remaining activity at 10 µM (DYRK1B): 47%; remaining activity at 10 µM (CLK2; 10 µM compound): 70%
Cn1cc(C#N)c2cccc(Br)c21 [Compound 13d, 7-Bromo-1-methyl-1H-indole-3-carbonitrile]	3330	> 10000	2.80	> 10000	> 10000	1900			> 10000	> 10000	> 10000	IC50 (GSK-3): > 10000 nM
Cn1c(-c2ccccc2)c(C#N)c2cccc(Br)c21 [Compound 13e, 7-Bromo-1-methyl-2-phenyl-1H-indole-3-carbonitrile]	> 10000	1000	1.15	10000		2300						inhibition at 10 µM (CLK3): < 20%; inhibition at 10 µM (DYRK2): < 20%; inhibition at 10 µM (DYRK3): < 20%; Inhibition at 10 µM GSK3 (class symbol) (GSK-3): - (-: less than 20% inhibition at 10 µM, IC50 was not determined); inhibition at 10 µM (CLK2; 10 µM compound, read-out: Inhibition at 10 µM CLK2 (class symbol)): < 20%
CN[C@@H]1C[C@H]2O[C@@](C)([C@@H]1OC)n1c3ccccc3c3c4c(c5c6ccccc6n2c5c31)C(=O)NC4 [Staurosporine, reference compound]												viability at 3 days, 1 µM [3]: 20%
